{"source": "ChEMBL document CHEMBL5131534", "about": "“Identification of 2-Pyridinylindole-Based Dual Antagonists of Toll-like Receptors 7 and 8 (TLR7/8)” (ACS Med Chem Lett, 2022)", "key": {"Mus musculus [1]": {"tested_on": "Mus musculus", "assay": "Anti-inflammatory activity against MRL/Ipr Systemic lupus erythematosus mouse model assessed as inhibition of proteinuria at 20 mg/kg, po administered for 8 weeks and measured 24 hrs post final dose relative to control", "type": "functional", "design": "scale not given: the % may be the effect or the level left", "settings": "time 1368 hrs"}, "[2]": {"assay": "Volume of distribution at steady state in mouse blood at 5 mg/kg, iv", "type": "ADME, organism-based", "settings": "read-out: Vdss"}, "[3]": {"assay": "Plasma protein binding in human assessed as free fraction", "type": "ADME, cell-free"}, "Mus musculus [4]": {"tested_on": "Mus musculus", "assay": "Anti-inflammatory activity against MRL/Ipr Systemic lupus erythematosus mouse model assessed as inhibition of anti-Sm/RNP Ab titer at 20 mg/kg, po administered for 8 weeks and measured 24 hrs post final dose relative to control", "type": "functional", "design": "scale not given: the % may be the effect or the level left", "settings": "time 1368 hrs"}, "Toll-like receptor 7": {"biological_target": "T1, Toll-like receptor 7 (Homo sapiens, UniProt Q9NYK1)", "T1 sequence (Q9NYK1 whole entry)": "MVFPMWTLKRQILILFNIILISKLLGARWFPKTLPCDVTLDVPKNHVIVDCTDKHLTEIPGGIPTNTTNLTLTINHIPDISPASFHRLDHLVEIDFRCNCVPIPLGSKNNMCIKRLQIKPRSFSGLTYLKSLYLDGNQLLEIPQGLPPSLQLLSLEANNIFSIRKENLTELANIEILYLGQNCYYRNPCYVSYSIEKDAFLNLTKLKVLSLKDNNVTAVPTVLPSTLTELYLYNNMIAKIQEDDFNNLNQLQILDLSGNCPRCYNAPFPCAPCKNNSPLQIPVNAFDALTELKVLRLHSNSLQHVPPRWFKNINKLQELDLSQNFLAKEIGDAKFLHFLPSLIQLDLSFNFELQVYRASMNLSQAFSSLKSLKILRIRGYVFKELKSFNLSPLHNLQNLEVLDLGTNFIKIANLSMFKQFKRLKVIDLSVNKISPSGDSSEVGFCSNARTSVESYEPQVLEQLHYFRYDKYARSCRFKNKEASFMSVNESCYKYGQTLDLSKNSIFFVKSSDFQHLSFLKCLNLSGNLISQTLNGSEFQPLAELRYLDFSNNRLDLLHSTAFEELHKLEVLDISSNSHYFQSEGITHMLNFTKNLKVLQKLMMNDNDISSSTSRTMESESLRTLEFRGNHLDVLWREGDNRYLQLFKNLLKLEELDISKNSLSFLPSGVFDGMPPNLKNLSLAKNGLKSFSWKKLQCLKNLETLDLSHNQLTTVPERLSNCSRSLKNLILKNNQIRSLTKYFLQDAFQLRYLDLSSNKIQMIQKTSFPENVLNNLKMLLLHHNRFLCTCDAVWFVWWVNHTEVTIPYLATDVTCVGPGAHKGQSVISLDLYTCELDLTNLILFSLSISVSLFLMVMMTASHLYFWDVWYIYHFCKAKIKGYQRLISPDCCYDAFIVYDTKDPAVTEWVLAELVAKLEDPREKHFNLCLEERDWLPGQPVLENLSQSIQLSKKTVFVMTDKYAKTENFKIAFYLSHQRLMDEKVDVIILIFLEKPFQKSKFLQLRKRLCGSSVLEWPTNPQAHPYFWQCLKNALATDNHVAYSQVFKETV", "assay": "Antagonist activity at gardiquimod stimulated TRL7 in human whole blood assessed as inhibition of IL-6 production by ELISA analysis", "type": "tissue-based"}, "Toll-like receptor 9": {"biological_target": "T2, Toll-like receptor 9 (Mus musculus, UniProt Q9EQU3)", "T2 sequence (Q9EQU3 whole entry)": "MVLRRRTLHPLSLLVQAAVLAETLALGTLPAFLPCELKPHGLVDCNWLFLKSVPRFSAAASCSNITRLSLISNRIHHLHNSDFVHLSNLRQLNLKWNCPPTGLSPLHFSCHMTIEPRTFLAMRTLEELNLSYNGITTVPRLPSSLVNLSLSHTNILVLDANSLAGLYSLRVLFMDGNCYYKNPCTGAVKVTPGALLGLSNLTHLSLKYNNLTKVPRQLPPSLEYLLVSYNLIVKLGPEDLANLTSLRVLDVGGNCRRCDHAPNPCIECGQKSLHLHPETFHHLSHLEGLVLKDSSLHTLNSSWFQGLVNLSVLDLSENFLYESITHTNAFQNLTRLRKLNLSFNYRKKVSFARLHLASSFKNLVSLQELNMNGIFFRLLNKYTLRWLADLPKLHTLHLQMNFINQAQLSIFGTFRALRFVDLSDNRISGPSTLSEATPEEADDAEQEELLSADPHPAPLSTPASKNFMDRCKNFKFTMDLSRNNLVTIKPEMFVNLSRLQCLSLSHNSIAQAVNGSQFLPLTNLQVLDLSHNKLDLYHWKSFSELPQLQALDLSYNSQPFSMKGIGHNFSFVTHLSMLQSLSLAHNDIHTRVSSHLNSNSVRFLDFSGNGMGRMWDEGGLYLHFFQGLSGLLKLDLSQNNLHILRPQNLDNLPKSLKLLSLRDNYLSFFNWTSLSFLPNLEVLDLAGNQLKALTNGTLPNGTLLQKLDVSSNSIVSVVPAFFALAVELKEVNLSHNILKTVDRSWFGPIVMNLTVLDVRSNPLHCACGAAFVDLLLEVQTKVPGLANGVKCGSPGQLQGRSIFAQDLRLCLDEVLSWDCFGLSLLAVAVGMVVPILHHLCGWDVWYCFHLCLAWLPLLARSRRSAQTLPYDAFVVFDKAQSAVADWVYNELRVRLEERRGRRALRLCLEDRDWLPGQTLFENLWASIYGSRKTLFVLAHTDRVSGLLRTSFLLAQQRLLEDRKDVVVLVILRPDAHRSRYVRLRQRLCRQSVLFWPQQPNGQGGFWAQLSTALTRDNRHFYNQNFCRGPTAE", "assay": "Antagonist activity at ODN-2216 stimulated TLR9 in mouse whole blood assessed as inhibition of IL-6 production by ELISA analysis", "type": "tissue-based"}}, "note": "pIC50: −log10 of the molar value.", "data": [{"smiles": "Cc1cc(-c2[nH]c3ccc(C4CCNCC4)cc3c2C(C)C)cc(C)n1", "values": [{"measurement": "Activity", "setting": "Mus musculus [1]", "result": 93, "unit": "%"}, {"measurement": "Vd", "setting": "[2]", "result": 113, "unit": "L/kg"}, {"measurement": "fraction unbound", "setting": "[3]", "result": 0.09}, {"measurement": "Activity", "setting": "Mus musculus [4]", "result": 82, "unit": "%"}, {"measurement": "pIC50", "setting": "Toll-like receptor 7", "result": 8.85}, {"measurement": "pIC50", "setting": "Toll-like receptor 9", "result": "< 5.30"}]}]}
